# Data published in BindingDB's records for doi:10.1016/s0022-2836(03)00399-1 (Celera, 2003).
# What was measured:
# Assay in all cases: Enzyme Assay and Determination of the Inhibition Constants
# Serine protease 1 [1] = molecular target: T1, Serine protease 1 (Bos taurus, UniProt P00760)
# T1 sequence (P00760 whole entry): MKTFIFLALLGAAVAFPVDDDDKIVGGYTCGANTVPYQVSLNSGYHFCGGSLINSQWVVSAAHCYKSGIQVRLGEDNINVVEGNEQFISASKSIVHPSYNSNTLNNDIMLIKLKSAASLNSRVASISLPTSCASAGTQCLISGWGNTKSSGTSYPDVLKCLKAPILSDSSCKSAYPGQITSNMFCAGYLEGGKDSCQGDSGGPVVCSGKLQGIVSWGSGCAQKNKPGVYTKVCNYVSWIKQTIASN
# Method: (§1) Each enzyme was assayed with a set of different concentrations of each inhibitor. […] Ki(apparent) values were calculated from enzyme velocity curves using the software package BatchKi (BioKin Ltd, Madison, WI). These apparent inhibition constants were then converted to Ki values by assuming competitive inhibition and using the formula Ki = Ki(apparent)/(1 + S/Km).
# Serine protease 1 [2] = molecular target: Serine protease 1 (Homo sapiens, UniProt P07477)
# Method: as §1
# [3] = molecular target: Urokinase-type plasminogen activator (Homo sapiens, UniProt P00749)
# Method: as §1
# Coagulation factor X = Coagulation factor X (Homo sapiens, UniProt P00742)
# Method: as §1
# Prothrombin = Prothrombin (Homo sapiens, UniProt P00734)
# Method: as §1
# Sequence of Serine protease 1 (Homo sapiens, UniProt P07477) (P07477 whole entry): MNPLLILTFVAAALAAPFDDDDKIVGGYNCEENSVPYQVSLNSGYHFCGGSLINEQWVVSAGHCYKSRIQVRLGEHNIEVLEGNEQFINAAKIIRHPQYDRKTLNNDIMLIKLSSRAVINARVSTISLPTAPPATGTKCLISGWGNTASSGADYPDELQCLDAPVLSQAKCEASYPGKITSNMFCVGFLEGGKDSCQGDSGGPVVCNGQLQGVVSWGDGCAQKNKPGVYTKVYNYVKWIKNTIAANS
# Sequence of Coagulation factor X (P00742 41-179 limits assumed): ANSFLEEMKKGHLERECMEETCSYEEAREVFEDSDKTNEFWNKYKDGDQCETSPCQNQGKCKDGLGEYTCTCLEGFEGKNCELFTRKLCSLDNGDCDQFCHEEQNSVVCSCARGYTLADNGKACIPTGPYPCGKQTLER
# Sequence of Coagulation factor X (P00742 235-488 limits assumed): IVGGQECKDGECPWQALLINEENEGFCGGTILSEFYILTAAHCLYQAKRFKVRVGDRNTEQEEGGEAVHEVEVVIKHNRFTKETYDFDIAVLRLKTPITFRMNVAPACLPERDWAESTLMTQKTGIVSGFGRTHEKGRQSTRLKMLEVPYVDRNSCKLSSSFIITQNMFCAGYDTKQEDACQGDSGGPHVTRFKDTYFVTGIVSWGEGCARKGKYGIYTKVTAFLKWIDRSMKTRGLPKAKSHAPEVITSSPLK
Structure (SMILES),"Ki (Serine protease 1 [1]; pH 7.5, 22 °C)",Ki (Serine protease 1 [2]),Ki [3],Ki (Coagulation factor X),Ki (Prothrombin),"Ki (Serine protease 1 [1]; pH 6.1, 22 °C)",Ki (Serine protease 1 [1]),"Ki (Serine protease 1 [1]; pH 7.6, 22 °C)","Ki (Serine protease 1 [1]; pH 8.04, 22 °C)"
"N=C(N)c1cc2nc(-c3cccc(-c4ccccc4)c3O)[nH]c2cc1F [2-{5-[amino(iminiumyl)methyl]-6-fluoro-1H-1,3-benzodiazol-2-yl}-6-phenylbenzen-1-olate]",230 nM,12000 nM,280 nM,,,,,,
"N=C(N)c1ccc2nc(-c3cc([N+](=O)[O-])ccc3O)[nH]c2c1 [2-{5-[amino(iminiumyl)methyl]-1H-1,3-benzodiazol-2-yl}-4-nitrobenzen-1-olate]",,,5100 nM,7300 nM,23000 nM,470 nM,,,
N=C(N)c1ccc2[nH]c(-c3cc(Cl)cc(-c4ccccc4)c3O)cc2c1 [2-{5-[amino(iminiumyl)methyl]-1H-indol-2-yl}-4-chloro-6-phenylbenzen-1-olate],,540 nM,590 nM,250 nM,1000 nM,,13 nM,,
Cc1cc(-c2ccccc2)c(O)c(-c2cc3cc(C(=N)N)ccc3[nH]2)c1 [2-{5-[amino(iminiumyl)methyl]-1H-indol-2-yl}-4-methyl-6-phenylbenzen-1-olate],,380 nM,340 nM,180 nM,,,,15 nM,
N=C(N)c1ccc2[nH]c(-c3ccccc3O)cc2c1 [2-{5-[amino(iminiumyl)methyl]-1H-indol-2-yl}benzen-1-olate],,4900 nM,2900 nM,2400 nM,12000 nM,,,,600 nM
"N=C(N)c1ccc2nc(-c3cc([C@@H](CC(=O)O)C(=O)O)cc(-c4ccccc4N)c3O)[nH]c2c1 [(2R)-2-(3-{5-[amino(iminiumyl)methyl]-1H-1,3-benzodiazol-2-yl}-5-(2-aminophenyl)-4-oxidophenyl)butanedioate]",,8500 nM,,3800 nM,> 75000 nM,,1100 nM,,
"N=C(N)c1ccc2nc(-c3cc([C@@H](CC(=O)O)C(=O)O)cc(-c4ccccc4)c3O)[nH]c2c1 [(2R)-2-(3-{5-[amino(iminiumyl)methyl]-1H-1,3-benzodiazol-2-yl}-4-oxido-5-phenylphenyl)butanedioate]",,3700 nM,120 nM,1200 nM,160000 nM,,290 nM,,
